Experimental data published in ChEMBL document CHEMBL5050848, “Kif18a inhibitors” (2020).

Target: T1, Kinesin-like protein KIF18A (Homo sapiens, UniProt Q8NI77)
T1 sequence (Q8NI77 whole entry): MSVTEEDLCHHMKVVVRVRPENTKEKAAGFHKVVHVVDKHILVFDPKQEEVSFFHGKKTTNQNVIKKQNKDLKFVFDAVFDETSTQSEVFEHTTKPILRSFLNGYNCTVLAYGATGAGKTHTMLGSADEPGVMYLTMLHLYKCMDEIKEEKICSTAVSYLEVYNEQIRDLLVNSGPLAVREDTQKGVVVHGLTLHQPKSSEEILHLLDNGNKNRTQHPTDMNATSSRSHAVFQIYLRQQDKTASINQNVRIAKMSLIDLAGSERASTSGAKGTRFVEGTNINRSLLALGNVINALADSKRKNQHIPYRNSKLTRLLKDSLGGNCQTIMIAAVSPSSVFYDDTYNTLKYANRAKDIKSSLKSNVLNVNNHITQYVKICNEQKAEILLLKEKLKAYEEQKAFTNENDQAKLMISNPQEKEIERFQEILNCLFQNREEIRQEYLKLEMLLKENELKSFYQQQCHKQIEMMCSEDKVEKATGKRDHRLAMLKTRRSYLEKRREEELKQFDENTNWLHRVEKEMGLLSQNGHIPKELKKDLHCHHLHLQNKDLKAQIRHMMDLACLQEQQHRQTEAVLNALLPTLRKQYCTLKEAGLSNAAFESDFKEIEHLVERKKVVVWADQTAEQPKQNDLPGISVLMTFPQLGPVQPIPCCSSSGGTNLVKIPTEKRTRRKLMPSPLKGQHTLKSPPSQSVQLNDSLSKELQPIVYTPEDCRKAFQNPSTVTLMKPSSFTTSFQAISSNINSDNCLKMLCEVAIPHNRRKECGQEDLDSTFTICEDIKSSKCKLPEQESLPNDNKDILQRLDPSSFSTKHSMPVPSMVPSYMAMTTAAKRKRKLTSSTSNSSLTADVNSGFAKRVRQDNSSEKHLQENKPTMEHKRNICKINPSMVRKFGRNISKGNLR
Test: Inhibition of recombinant His-tagged human KIF18A (1 to 467 residues) expressed in baculovirus expression system assessed as inhibition of microtubule-stimulated ATPase activity preincubated for 15 mins followed by ATP addition and further incubated for 15 mins and measured after 40 mins by ADP-Glo reagent based assay

Row | SMILES | IC50
1 | Cc1cc(NC(=O)c2ccc(NS(=O)(=O)CCO)cc2N2CCC3(CC2)CC3)nc(N2CC(F)(F)C2)c1 | 24 nM
2 | C[C@@H]1CN(c2cccc(NC(=O)c3ccc(NS(=O)(=O)CC(F)F)cc3N3CCC4(CC3)CC4)n2)CCO1 | 67 nM
3 | O=C(Nc1cccc(OC(F)F)n1)c1ccc(NS(=O)(=O)CCO)cc1N1CCC2(CC1)CC2 | 45 nM
